Assay results from patent US6943185B2, “Use of 2-methyl-thiazolidine-2,4-dicarboxylic acid and/or physiologically compatible salts thereof for producing a medicament for treating cancers” (Trommsdorff GmbH & Co. KG, priority 2000, dated 2005).

Key:
[1] = cited from earlier work
[2] = pulmonary cancer patients treated with epirubicin and simultaneously NAC; cited from earlier work
[3] = tested on: animal tumor models; test: Animal tumor models (skin papillomas, mammary adenocarcinomas, tracheal cancer, pulmonary adenocarcinomas, colon carcinomas, bladder cancer); type: in vivo; settings: several animal tumor models in mouse, rat, hamster
Method: These studies were conducted in several animal tumor models. Test systems used were the mouse, the rat, and the hamster. The objects of study included skin papillomas, mammary adenocarcinomas, tracheal cancer, pulmonary adenocarcinomas as well as colon carcinomas and bladder cancer.

[4] = tested on: reduced glutathione (GSH) in the hepatic tissue; test: Effect of 2-MTDC on reduced glutathione (GSH) in the hepatic tissue in mice; type: in vivo; settings: mouse liver; for Glutathione (GSH), % of the reference value: reference 0.9% NaCl
[5] = 2-MTDC 1.2 mmol/kg intraperitoneally, 8 hours after injection
[6] = 2-MTDC 2.4 mmol/kg intraperitoneally, 4 hours after injection

Structure (SMILES): CC1NC(C(=O)O)CS1 (stereo not shown)
- Stability under physiological conditions [1]: spontaneously decomposes into its components under physiological conditions

Structure (SMILES): CC(=O)N[C@@H](CS)C(=O)O [N-acetylcysteine]
- Effect on undesirable cardiotoxic effects of epirubicin [2]: undesirable cardiotoxic effects of epirubicin could be prevented

Structure (SMILES): CC1(C(=O)O)NC(C(=O)O)CS1 (stereo not shown) [2-MTDC, 2-methyl-thiazolidine-2,4-dicarboxylic acid]
- Effect on the advance of cancerous diseases [3]: can slow down or even stop the advance of cancerous diseases
- Glutathione (GSH), % of the reference value ([4]; 2-MTDC 1.2 mmol/kg intraperitoneally, 1 hour after injection): 117.5%
- Glutathione (GSH), % of the reference value ([4]; 2-MTDC 1.2 mmol/kg intraperitoneally, 4 hours after injection): 87.2%
- Glutathione (GSH), mean ± SD [4, 5]: 6.48 ± 0.67 μmol/g wet weight
- Glutathione (GSH), % of the reference value [4, 5]: 108.5%
- Glutathione (GSH), % of the reference value ([4]; 2-MTDC 1.2 mmol/kg intraperitoneally, 12 hours after injection): 112.0%
- Glutathione (GSH), % of the reference value ([4]; 2-MTDC 2.4 mmol/kg intraperitoneally, 1 hour after injection): 127.6%
- Glutathione (GSH), mean ± SD [4, 6]: 5.76 ± 0.42 μmol/g wet weight
- Glutathione (GSH), % of the reference value [4, 6]: 90.3%
- Glutathione (GSH), % of the reference value ([4]; 2-MTDC 2.4 mmol/kg intraperitoneally, 8 hours after injection): 112.0%
- Glutathione (GSH), % of the reference value ([4]; 2-MTDC 2.4 mmol/kg intraperitoneally, 12 hours after injection): 154.5%
